Assay: release experiments with pure active compound (I) and with state-of-the-art preparations
Format: physicochemical
Conditions: release experiments using pure active compound (I)
Text: If those preparations known from the state of the art are applied to the active compound (I) described here, it has unexpectedly been shown that there is no immediate release of the active compound but that there is a markedly delayed release which is therapeutically not desired.

release behavior of pure active compound (in words): “clumping” or a gel formation
Compound: Cc1nc(N(C)C(=O)Cc2ccc(-c3ccccn3)cc2)sc1S(N)(=O)=O [active compound (I), N-[5-(Aminosulfonyl)-4-methyl-1,3-thiazol-2-yl]-N-methyl-2-[4-(2-pyridinyl)phenyl]acetamide]
